We go through two compounds from patent US20040006784A1, “Methods and compositions for producing plants and microorganisms that express feedback insensitive threonine dehydratase/deaminase” (priority 1997, published 2004).

Experiment [1] concerns the target T1, threonine dehydratase/deaminase (TD) (Arabidopsis thaliana, UniProt Q9ZSS6, R499C/R544H).
T1 construct: from tissue; host or cells: extracts of Arabidopsis thaliana GM11b (omr1/omr1) plants
Conditions: extracts from GM11b (omr1/omr1) plants compared with wild type plants; Mourad and King 1995; cited from earlier work.

In experiment [2] the test system is Arabidopsis thaliana Columbia wild type. Conditions: agar medium; Mourad and King, 1995; cited from earlier work.
Experiment [3] shares this test system. Kind of experiment: Germination and growth of seedlings in agar medium supplemented with L-O-methylthreonine. Conditions: 0.2 mM L-O-methylthreonine agar medium, T1 seed screen. The format is in vivo. The source says: Using the vacuum infiltration method of Bent et al. (1994), L-O-methylthreonine-sensitive Arabidopsis thaliana Columbia wild type were transformed with pCM35S-omr1. Ten pots, each with 3-4 plants, were transformed and T1 seeds were harvested from the To transformed plants of each pot separately. […] In a crowded plate, it is possible to identify the transformants by looking at the bottom of the plate, the transformants show root growth while the nontransformants will have none. After three weeks of growth in the 0.2 mM L-O-methylthreonine agar medium, each of the 5 positive transformants was transferred to soil, kept separately and allowed to self-fertilize to produce the T2 seed.

The next experiment deals with manmalian cell cultures. The settings on record: by inhibiting incorporation of Ile into proteins; Rabinovitz et al. 1955; cited from earlier work.
In experiment [4] the test system is T2 seedlings of omr1 transgenic Arabidopsis. Kind of experiment: T2 seedlings of omr1 transformants on L-O-methylthreonine agar medium. The settings on record: 0.2 mM L-O-methylthreonine agar medium, 50 T2 seeds/transformant, each of 5 plates. It counts as in vivo, Arabidopsis thaliana. The method, then: The T2 seed was harvested from each of the 5 positive T1 transformants and 50 T2 seeds/transformant were planted in a separate petri plate containing 0.2 mM L-O-methylthreonine agar medium. […] This slightly truncated precursor mutant TD was able to translocate to the chloroplast and confer upon transgenic plants resistance to OMT.

Experiment [5] relates to E. coli prototroph host DH5α. Kind of experiment: Growth of E. coli DH5α on minimal medium supplemented with L-O-methylthreonine (second complementation experiment). It counts as cell-based. The method, then: In the second complementation experiment, the E. coli prototroph host DH5α was transformed with pTrc-td23 or pUCK-td23 and plated on minimal medium supplemented with varying concentrations of the toxic analog L-O-methylthreonine. Both of the constructs were able to confer upon DH5α resistance to 30 μM L-O-methylthreonine. […] Therefore omr1 provides a new environmentally friendly selectable marker for genetic transformation of bacteria.

Structures are written as SMILES.

T1 sequence (Q9ZSS6 92-592 R499C/R544H): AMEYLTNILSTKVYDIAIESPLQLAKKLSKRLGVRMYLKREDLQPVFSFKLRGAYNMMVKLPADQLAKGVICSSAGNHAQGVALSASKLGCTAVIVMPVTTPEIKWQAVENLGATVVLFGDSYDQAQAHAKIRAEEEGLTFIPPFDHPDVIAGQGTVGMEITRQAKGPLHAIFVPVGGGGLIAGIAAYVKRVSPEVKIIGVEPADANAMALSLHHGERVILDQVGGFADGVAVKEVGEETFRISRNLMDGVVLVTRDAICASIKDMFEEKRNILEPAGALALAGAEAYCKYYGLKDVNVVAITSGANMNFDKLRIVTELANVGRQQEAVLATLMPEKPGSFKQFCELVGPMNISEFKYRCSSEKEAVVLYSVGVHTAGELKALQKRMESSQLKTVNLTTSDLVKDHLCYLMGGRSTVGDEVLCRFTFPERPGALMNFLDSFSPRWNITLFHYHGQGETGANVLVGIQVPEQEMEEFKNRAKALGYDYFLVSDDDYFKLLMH

Take `CC[C@H](C)[C@H](N)C(=O)O` [Ile, isoleucine]: in experiment [1], the “resistance of TD activity to feedback inhibition by Ile, GM11b extracts versus wild type extracts” value is “about 50 fold”.
`CO[C@H](C)[C@H](N)C(=O)O` [L-O-methylthreonine]: in experiment [2], the “concentration known to completely inhibit the growth of wild type seedlings beyond the cotyledonous stage” value is recorded as 0.2 mM. Moreover, the “appearance of nontransformed seedlings after emergence of the cotyledons” value in experiment [3] is recorded as “completely bleached”. In addition, the “effect on growth of mammalian cell cultures” value with manmalian cell cultures is given as “inhibits growth”. Moreover, in experiment [4], the “T2 seedlings resistant to L-O-methylthreonine” value is listed as at least 75%. Also, the “L-O-methylthreonine concentration to which resistance was conferred” value in experiment [5] (DH5α transformed with pTrc-td23 or pUCK-td23 (omr1), minimal medium) came out at 30 µM. Also, the “growth of bacterial colonies on plates with L-O-methylthreonine” value in experiment [5] (untransformed DH5α, minimal medium supplemented with varying concentrations of L-O-methylthreonine) is listed as “No bacterial colonies grew”.
